Read-outs that look alike come from different tables or passages of the source.
What was measured:
PIM2 = PIM2 (Homo sapiens, UniProt Q9P1W9); experiment: Pim-2 kinase IC50, Table 2; assay type: biochemical
PIM1 [1] = target: T1, PIM1 (Homo sapiens, UniProt P11309); experiment: Pim-1 protein kinase assay (Procedure 1), Table 1; assay type: biochemical; design: purchased Upstate 14-573
Text: The following in vitro procedure can be used to evaluate compounds for inhibition of Pim-1 protein kinase.

[2] = tested on: Human prostate cancer PC3 cells; experiment: Cytotoxicity assay (MTS), PC3 cells, Table 3; assay type: cell-based; details: PC-3, 48 hours, read-out: IC50 (PC3 cell assay)
Method: Varying concentrations of the test compounds are then added to each well, and the plates were incubated for an additional 48 hours. The number of surviving cells was determined by the MTS assay (Promega). The percentage of cells killed was calculated as the percentage decrease in MTS metabolism compared with control cultures.

[3] = tested on: PC-3 prostate cancer cell; experiment: PC-3 cell viability with or without rapamycin; assay type: cell-based, human; details: administered alone, doses of 1 and 3 μM, after 36 hours
Text: FIG. 5 depicts the results of these experiments.

[4] = tested on: p27^Kip1 in K562, U937, and MV7;11 cells; experiment: p27Kip1 location in cytoplasmic and nuclear fractions; assay type: cell-based, human; details: 72 hours, media containing 10% FCS; all three cell lines
Method: To examine p27^Kip1 location, K562, U937 or MV7;11 cells (1×10^5/mL) were incubated for 72 hours in complete media with DMSO or a disclosed Pim-1 and/or Pim-2 inhibitor. Cells were harvested, washed in PBS and cytoplasmic and nuclear fractions were prepared using the NE-PER Nuclear and Cytoplasmic Extraction kit (Pierce Biotechnology, Rockford, Ill.) according to the manufacturer's instructions, followed by SDS-PAGE and western blotting with anti-p27^Kip1 antibody, as described above. To measure Cdk2 activity, this protein was immunoprecipitated from K562, U937, or MV7;11 cells treated for 72 hours with Pim inhibitors, lysed in buffer (50 mM Tris-HCl, pH 8.0 containing 5 mM EDTA, 150 mM NaCl, 1% NP-40 and 1 mM phenylmethylsulfonyl fluoride) followed by the addition of Cdk2 antibody (2 μg). Samples were then rotated overnight at 4° C., and Cdk2 was immunoprecipitated by the addition of protein G beads (Pierce Biotechnology) with rotation at room temperature for 1 h. […] Reactions were allowed to proceed for 15 minutes at 37° C., and then analyzed by SDS-PAGE. ^32P-Phosphorylated histone H1 was visualized by autoradiography, and Cdk2 protein levels detected by Western blotting, as described above.

[5] = tested on: PC3, DU145, LNCaP, U937, K582, and MV7;11 cell lines; experiment: Growth inhibition of cancer cell lines, 72 hours; assay type: cell-based, human; details: treatment for 72 hours in culture
MV7;11 and FDCP1 cells = experiment: Combined treatment with rapamycin, growth inhibition; assay type: cell-based
AMPK protein kinase = experiment: Phosphorylation of AMPK on threonine 172
Text: This phosphorylation is known to activate this protein kinase and lead to the phosphorylation of TSC2 and the inhibition of TOR protein kinase (Molecular Cell 30: 214-226, 2008; Oncogene 26: 1616-1625, 2007).

[6] = tested on: phosphoBad in FDCP1-Pim cells; experiment: PhosphoBad time course in FDCP1-Pim cells; assay type: cell-based, murine; details: 5 μM, serum and IL-3-free conditions, by 2 hours, compared to DMSO-treated cells
[7] = tested on: 4E-BP1 phosphorylation in FDCP1 cells
DU145 and MV7;11 cells = experiment: Cell cycle distribution by FACS; details: 5 μM for 72 hours; DU145 in 2% serum, MV7;11 in 10% serum; compared to DMSO control
22Rv1-Pim cells = experiment: Apoptosis (sub G1, FACS) in 22Rv1-Pim cells; details: 5 μM, 72 hours, serum-free conditions
[8] = tested on: phosphoBad in 22Rv1-Pim and DU145-Pim cells; experiment: PhosphoBad level by Western blotting in Pim-1 transfected prostate cancer cells; assay type: cell-based, human; details: 1 hour, serum-free conditions; total Bad constant
[9] = tested on: Cdk2 activity in K562 cells; details: K562 cells treated 72 hours, 10% FCS; histone H1 as substrate
PIM1 [10] = target: T1, PIM1; details: 5 μM, in vitro
PIM1 [11] = target: T1, PIM1; experiment: biochemical

T1 sequence (P11309 whole entry): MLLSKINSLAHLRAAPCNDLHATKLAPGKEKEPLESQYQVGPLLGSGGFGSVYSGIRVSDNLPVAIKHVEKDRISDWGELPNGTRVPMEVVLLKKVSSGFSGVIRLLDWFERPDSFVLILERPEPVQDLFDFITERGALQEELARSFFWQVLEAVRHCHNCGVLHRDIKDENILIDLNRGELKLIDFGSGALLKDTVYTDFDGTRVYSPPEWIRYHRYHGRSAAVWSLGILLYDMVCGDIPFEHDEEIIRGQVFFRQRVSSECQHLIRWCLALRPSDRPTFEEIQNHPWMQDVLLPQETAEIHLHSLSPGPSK
Chain of PIM2 (Q9P1W9 whole entry): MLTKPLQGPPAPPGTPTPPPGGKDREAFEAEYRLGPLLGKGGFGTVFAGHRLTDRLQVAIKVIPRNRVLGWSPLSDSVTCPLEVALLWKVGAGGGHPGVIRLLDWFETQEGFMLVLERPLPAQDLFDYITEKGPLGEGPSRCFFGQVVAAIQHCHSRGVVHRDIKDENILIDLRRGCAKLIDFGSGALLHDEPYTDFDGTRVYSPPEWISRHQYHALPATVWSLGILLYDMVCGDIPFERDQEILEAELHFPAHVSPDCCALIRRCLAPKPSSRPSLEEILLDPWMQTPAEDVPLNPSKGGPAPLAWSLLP

O=C1NC(=O)/C(=C/c2cccc(F)c2)S1 [Compound D1]
IC50 (PIM2): 400 ± 200 nM | IC50 (PIM1 [1]): 130 ± 60 nM

O=C1NC(=O)/C(=C/c2cccc(Cl)c2)S1 [Compound D2]
IC50 (PIM2): 400 ± 150 nM | IC50 (PIM1 [1]): 600 ± 510 nM

O=C1NC(=O)/C(=C/c2cccc(Br)c2)S1 [Compound D3]
IC50 (PIM2): 90 ± 40 nM | IC50 [2]: 58000 ± 11000 nM | IC50 (PIM1 [1]): 45000 ± 11000 nM

Cc1cccc(/C=C2\SC(=O)NC2=O)c1 [Compound D4]
IC50 (PIM2): 100 ± 100 nM | IC50 (PIM1 [1]): 160 ± 40 nM

O=C1NC(=O)/C(=C/c2cccc(C(F)(F)F)c2)S1 [Compound D5, 5-(3-trifluoromethylbenzylidene)thiazolidine-2,4-dione]
IC50 (PIM2): 100 ± 300 nM | inhibition of cell viability [3]: 40% | amount of p27^Kip1 in nuclear fractions [4]: increase in the amount of p27^Kip1 in nuclear fractions | growth inhibition of cancer cell lines [5]: growth inhibition of each cell line | growth inhibition, combined treatment with rapamycin (MV7;11 and FDCP1 cells): significant growth inhibition | phosphorylation of AMPK on threonine 172 (AMPK protein kinase): increase the phosphorylation | phosphoBad levels [6]: reduction in phosphoBad levels | concentration at which phosphorylation of 4E-BP1 was inhibited ([7]; 1 hour, absent rapamycin): 1.6 to 3.2 µM | effect on rapamycin inhibition of 4E-BP1 phosphorylation ([7]; with or without serum, combined with rapamycin): enhanced the ability of rapamycin to inhibit 4E-BP1 phosphorylation | cell cycle arrest (DU145 and MV7;11 cells): significant G1 cell cycle arrest | sub G1 population (22Rv1-Pim cells): 38.1%

COc1cccc(/C=C2\SC(=O)NC2=O)c1 [Compound D6]
IC50 [2]: 73000 ± 13000 nM | IC50 (PIM1 [1]): 650 ± 50 nM

O=C1NC(=O)/C(=C/c2cccc(OC(F)(F)F)c2)S1 [Compound D7]
IC50 (PIM2): 900 ± 400 nM | IC50 (PIM1 [1]): 67 ± 61 nM

O=C1NC(=O)/C(=C/c2cccc(OC(F)(F)C(F)F)c2)S1 [Compound D8]
IC50 (PIM2): 2200 ± 1100 nM | IC50 (PIM1 [1]): 73 ± 53 nM

O=C1NC(=O)/C(=C/c2ccc(F)cc2)S1 [Compound D9]
IC50 (PIM2): 2300 ± 100 nM | IC50 [2]: 93000 ± 5000 nM

O=C1NC(=O)/C(=C/c2ccc(Cl)cc2)S1 [Compound D10]
IC50 (PIM2): 200 ± 100 nM | IC50 (PIM1 [1]): 40 ± 30 nM

O=C1NC(=O)/C(=C/c2ccc(Br)cc2)S1 [Compound D11]
IC50 (PIM1 [1]): 28000 ± 23000 nM

Cc1ccc(/C=C2\SC(=O)NC2=O)cc1 [Compound D12]
IC50 (PIM2): 4400 ± 200 nM | IC50 [2]: > 100000 nM

CCc1ccc(/C=C2\SC(=O)NC2=O)cc1 [Compound D13]
IC50 (PIM2): 300 ± 100 nM | IC50 (PIM1 [1]): 600 ± 100 nM

COc1ccc(/C=C2\SC(=O)NC2=O)cc1 [Compound D14]
IC50 (PIM2): 300 ± 100 nM | IC50 [2]: 11000 ± 1000 nM | IC50 (PIM1 [1]): 5100 ± 5000 nM

CCOc1ccc(/C=C2\SC(=O)NC2=O)cc1 [Compound D15]
IC50 (PIM2): 43000 ± 18000 nM | IC50 [2]: 65000 ± 17000 nM | IC50 (PIM1 [1]): 170 ± 40 nM

CCCOc1ccc(/C=C2\SC(=O)NC2=O)cc1 [Compound D16, 5-(4-propoxybenzylidene)thiazolidine-2,4-dione]
IC50 (PIM2): 20 ± 10 nM | level of phosphoBad [8]: decreased in a dose-dependent manner | amount of p27^Kip1 in nuclear fractions [4]: increase in the amount of p27^Kip1 in nuclear fractions | growth inhibition of cancer cell lines [5]: growth inhibition of each cell line | growth inhibition, combined treatment with rapamycin (MV7;11 and FDCP1 cells; 72 hours, rapamycin 5 nM plus compound 5 μM, MV7;11 and FDCP1 cells): significant growth inhibition | phosphorylation of AMPK on threonine 172 (AMPK protein kinase): increase the phosphorylation | decreased Cdk2 activity [9]: ~60% | phosphorylation of p27^Kip1 by Pim-1 (PIM1 [10]): reduce phosphorylation | IC50 (PIM1 [11]): 63 ± 11 nM | IC50 (PIM1 [1]): 150 ± 110 nM | cell cycle arrest (DU145 and MV7;11 cells): significant G1 cell cycle arrest

CC(C)c1ccc(/C=C2\SC(=O)NC2=O)cc1 [Compound D17]
IC50 (PIM2): > 100000 nM | IC50 (PIM1 [1]): 40 ± 30 nM

O=C1NC(=O)/C(=C/c2ccc(C(F)(F)F)cc2)S1 [Compound D18]
IC50 (PIM2): 80 ± 20 nM | IC50 (PIM1 [1]): 330 ± 130 nM

O=C1NC(=O)/C(=C/c2ccc(OC(F)(F)F)cc2)S1 [Compound D19]
IC50 (PIM2): 500 ± 200 nM | IC50 [2]: 48000 ± 27000 nM

CN(C)c1ccc(/C=C2\SC(=O)NC2=O)cc1 [Compound D20]
IC50 (PIM2): 100 ± 100 nM | IC50 [2]: 66000 ± 13000 nM | IC50 (PIM1 [1]): 6000 ± 1700 nM

O=C1S/C(=C\c2ccc(F)cc2)C(=O)N1Cc1ccccc1F [Compound D27]
IC50 [2]: > 100000 nM | IC50 (PIM1 [1]): 45000 ± 15000 nM

O=C1NC(=O)N(Cc2ccccc2)/C1=C\c1ccc(Br)cc1 [Compound D30]
IC50 (PIM1 [1]): 58000 ± 7500 nM

CN(C)c1ccc(/C=C2/C(=O)NC(=O)N2Cc2ccccc2)cc1 [Compound D31]
IC50 (PIM1 [1]): 78000 ± 7500 nM

COc1cccc(/C=C2/C(=O)NC(=O)N2Cc2ccccc2)c1 [Compound D32]
IC50 [2]: 80000 ± 15000 nM
